Here are results for five molecules from paper PMC8021898 (Frontiers in Pharmacology, 2021).

The conditions of data set [1]: for Css Free drug Concentration (mass/volume) / Css Free drug Concentration (molarity): approximately 20% protein bound.
The next data set deals with human sigma-1 receptor (Homo sapiens, UniProt Q99720). The settings on record: concentrations up to 10 μM. Here is the method:
All reactions were performed in triplicate using a 96-well block. […] Data were analyzed using GraphPad Prism software.

Another data set can be described thus: in vitro. The settings on record: African green monkey.
Data set [2] addresses T1, H2 (Homo sapiens, UniProt P25021). Nature of the data set: cell-based. As to the method:
cAMP production was determined in transiently transfected HEK293T cells ([Stauch et al., 2019]) with minor modifications. In brief, HEK293 T cells were co-transfected with H2 and GloSensor cAMP reporter DNA (Promega) overnight and plated in poly-l-lysine coated clear bottom 384-well white plate at a density of 15,000 cells/well in 40 ul of DMEM supplemented with 1% dialyzed FBS for 6 h. Medium was removed and cells were loaded with 3 mM luciferin in drug buffer (20 ul/well, 1x HBSS, 20 mM HEPES, pH 7.40) for 30 min. Test compounds were prepared in the same drug buffer supplemented with 1 mg/ml BSA and added (20 ul/well at 2x) to cells. Luminescence was counted after 20 min and results were analyzed in Prism 8.4.

Data set [3] concerns the target T1, H2. Nature of the data set: biochemical. The settings on record: affinity (Ki) for histamine H2 receptor. As to the method:
Radioligand binding assays with human histamine receptors. Radioligand binding assays with human H1, H2, H3, and H4 receptors were conducted according to the NIMH PDSP assay protocol (https://pdsp.unc.edu/pdspweb/?site=assays) and published procedures ([Besnard et al., 2012]).

The target of another data set is human sigma-2 (TMEM97) (Homo sapiens, UniProt Q5BJF2). The settings on record: concentrations up to 10 μM. As to the method:
Sigma-2 competition curves were performed in a similar manner, using Expi293 cells overexpressing the human sigma-2 (TMEM97) and using [^3H] DTG as the radioactive probe.

For the next data set, the system named is COVID-19 patient. The settings on record: one patient, 60 mg p.o. t.i.d. for 30 days, started day 8 of symptoms; anecdotal.
A further data set concerns the target bradykinin receptor B1 (Homo sapiens, UniProt P46663). The settings on record: quadruplicate replicate. As to the method: (§1) Human G-coupled Protein Receptor genome (GPCRome) screening was carried out according to published procedure ([Kroeze et al., 2015]) with minor modifications. In brief, HTLA cells were subcultured into poly-L-lysine coated clear bottom 384-well white plates at a density of 6,000 cells/well in 40 ul of DMEM supplemented with 1% dialyzed FBS for overnight, transfected with 20 ng/well Tango constructs for 24 h, received drug stimulation (10 uM final) for another 24 h. Medium and drug solutions were removed and Bright-Glo Reagents (Promega) were added for luminescence counting. For concentration response assays, HTLA cells were transfected with Tango constructs for 24 h, plated in poly-L-Lysine coated clear bottom 384-well white plates at a density of 10,000 cells/well in 40 ul of DMEM supplemented with 1% dialyzed FBS for 6 h before receiving drugs for overnight stimulation. Plates were then counted as above.

Another data set addresses bradykinin receptor B2 (Homo sapiens, UniProt P30411). The settings on record: quadruplicate replicate. Here is the method:
as §1

The test system of a further data set is 318 known human GPCRs. The settings on record: 10 microM final; threshold >3x basal; follow up studies. As to the method: as §1
For the next data set, the system named is SARS-CoV-2. In words: microbe, parasite or virus in culture. The class given is cell-based. The settings on record: for IC50: read-out: Antiviral: IC50; for IC90: read-out: Antiviral: IC90; for inhibition of SARS-CoV-2 infection: Vero E6 cell-based assay.
In data set [4] the target is T2, histamine H2 receptor (Homo sapiens, UniProt P25021). In words: cell-based.
A further data set has as its system human skin mast cells. The settings on record: 10 μM pre-incubation; ref Lippert et al., 2004; cited from earlier work.
Data set [5] relates to H2 in primary human neutrophils. The settings on record: ref Reher et al., 2012, cited from earlier work.
Data set [6] has as its target T2, histamine H2 receptor. The settings on record: partial agonist.
For data set [7], the target named is histamine H2 receptor. The settings on record: cited from earlier work.
In data set [8] the test system is hospitalized COVID-19 patients. The settings on record: ref Cheung et al., 2020, Shoaibi et al., Yeramaneni et al.; cited from earlier work.
The test system of data set [9] is H2 in primary human neutrophils. The settings on record: ref Reher et al., 2012, cited from earlier work. The source holds these as a separate data set.
In data set [10] the test system is H2 in primary human eosinophils. The settings on record: ref Reher et al., 2012, cited from earlier work.
The next data set has as its system Vero E6 cells. Nature of the data set: MTT cytotoxicity assay in uninfected Vero E6 cells. The settings on record: uninfected Vero E6, MTT.
The nature of data set [11]: MTT cytotoxicity assay in uninfected Vero E6 cells. The settings on record: African green monkey, uninfected Vero E6 cells.
[12] abbreviates: 40 mg tablet p.o. t.i.d., pK data reported by Lin et al. (1987).
[13] abbreviates: 40 mg tablet p.o. t.i.d., pK data reported by Yeh et al. (1987).
The mark [14] stands for this setting: Severe acute respiratory syndrome coronavirus 2, Vero C1008, Vero E6, 48 h, MOI 0.025.
[15] abbreviates: Severe acute respiratory syndrome coronavirus 2, Vero C1008, 48 h.

Converted amounts (≈) assume the structure as drawn. “And” between values parts separate entries of the source, which are not always exact repeats. Identical values can stand only once. Like-named read-outs stand apart in the source and are kept apart here.

T1 sequence (P25021 whole entry): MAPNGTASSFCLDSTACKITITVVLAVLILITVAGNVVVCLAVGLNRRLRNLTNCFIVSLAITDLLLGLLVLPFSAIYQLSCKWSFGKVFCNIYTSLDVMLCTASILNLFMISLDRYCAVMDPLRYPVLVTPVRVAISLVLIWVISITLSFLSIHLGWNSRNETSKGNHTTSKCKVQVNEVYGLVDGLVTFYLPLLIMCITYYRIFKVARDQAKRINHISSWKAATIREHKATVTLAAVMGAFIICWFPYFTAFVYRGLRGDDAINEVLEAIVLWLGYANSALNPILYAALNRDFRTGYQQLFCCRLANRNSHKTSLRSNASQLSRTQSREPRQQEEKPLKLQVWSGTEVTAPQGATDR
T2 sequence (P25021 whole entry): as above
bradykinin receptor B2, sequence (P30411 whole entry): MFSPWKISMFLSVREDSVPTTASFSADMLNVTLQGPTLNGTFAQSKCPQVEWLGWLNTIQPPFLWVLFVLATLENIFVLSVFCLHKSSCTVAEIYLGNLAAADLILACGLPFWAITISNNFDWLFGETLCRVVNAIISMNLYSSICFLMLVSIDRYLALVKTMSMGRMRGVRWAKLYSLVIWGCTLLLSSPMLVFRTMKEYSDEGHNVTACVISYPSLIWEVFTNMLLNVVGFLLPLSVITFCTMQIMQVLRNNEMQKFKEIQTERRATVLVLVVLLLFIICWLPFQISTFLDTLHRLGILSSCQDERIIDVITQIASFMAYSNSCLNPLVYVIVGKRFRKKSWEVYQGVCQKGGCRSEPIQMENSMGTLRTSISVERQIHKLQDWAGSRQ
bradykinin receptor B1, sequence (P46663 whole entry): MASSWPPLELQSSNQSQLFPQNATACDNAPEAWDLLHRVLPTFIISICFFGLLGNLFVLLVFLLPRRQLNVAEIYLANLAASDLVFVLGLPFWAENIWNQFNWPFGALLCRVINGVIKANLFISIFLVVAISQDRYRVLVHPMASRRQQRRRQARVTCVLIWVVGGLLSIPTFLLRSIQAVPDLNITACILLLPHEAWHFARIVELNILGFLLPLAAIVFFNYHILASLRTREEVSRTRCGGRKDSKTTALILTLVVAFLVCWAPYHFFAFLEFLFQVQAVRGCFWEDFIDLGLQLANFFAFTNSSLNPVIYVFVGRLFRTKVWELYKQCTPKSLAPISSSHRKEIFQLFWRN
human sigma-1 receptor, sequence (Q99720 whole entry): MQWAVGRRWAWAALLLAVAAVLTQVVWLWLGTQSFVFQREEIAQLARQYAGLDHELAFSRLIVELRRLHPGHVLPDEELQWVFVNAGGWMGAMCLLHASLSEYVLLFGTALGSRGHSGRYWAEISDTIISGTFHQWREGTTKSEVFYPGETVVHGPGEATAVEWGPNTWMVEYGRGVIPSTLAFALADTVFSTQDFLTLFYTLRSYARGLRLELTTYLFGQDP
human sigma-2 (TMEM97), sequence (Q5BJF2 whole entry): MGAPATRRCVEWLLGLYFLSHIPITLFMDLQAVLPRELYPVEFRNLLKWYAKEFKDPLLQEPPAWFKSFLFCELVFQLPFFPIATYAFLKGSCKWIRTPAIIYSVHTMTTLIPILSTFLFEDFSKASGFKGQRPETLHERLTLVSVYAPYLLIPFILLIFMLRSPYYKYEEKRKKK

For `CN/C(=N/CCSCc1nc[nH]c1C)NC#N` [Cimetidine], the “Css Free drug Concentration (mass/volume)” value in [1] (200 mg tablet p.o. q.d.) is 140 µg/L. Moreover, in data set [1] (300 mg tablet p.o. q.d.), the “Css Free drug Concentration (mass/volume)” value came out at 180.1 µg/L and the “Css Free drug Concentration (molarity)” value came out at 720 nM.
For `NC(N)=Nc1nc(CSCCC(N)=NS(N)(=O)=O)cs1` [Famotidine], the “displacement of radioligand probe, sigma-1” value at human sigma-1 receptor was “no detectable displacement”. The molecule also showed a CC50 in the data set “in vitro” above 100000 nM. Besides, the “Css Free drug Concentration (mass/volume)” value in data set [1] (20 mg capsule p.o. b.i.d.) is 29.4 µg/L; in data set [1] (20 mg capsule p.o. q.d.) it was 14.7 µg/L; in data set [1] (20 mg capsule p.o. t.i.d.), 44.2 µg/L; in [1] (20 mg tablet p.o. b.i.d.) it was 28.3 µg/L; in data set [1] (20 mg tablet p.o. q.d.), 14.2 µg/L; in data set [1] (20 mg tablet p.o. t.i.d.), 42.5 µg/L. The “Css Free drug Concentration (mass/volume)” value in data set [1] (setting [12]) is 44.3 µg/L; in data set [1] (setting [13]) it was 64.6 µg/L; in data set [1] (60 mg tablet p.o. t.i.d.), 115.4 µg/L; in [1] (120 mg IV every 8 h) it was 1,032 μg/l. The “Css Free drug Concentration (molarity)” value in data set [1] (20 mg capsule p.o. b.i.d.) is 87 nM; in data set [1] (20 mg capsule p.o. q.d.) it was 44 nM; in [1] (20 mg capsule p.o. t.i.d.), 131 nM; in [1] (20 mg tablet p.o. b.i.d.), 84 nM; in data set [1] (20 mg tablet p.o. q.d.), 42 nM; in data set [1] (20 mg tablet p.o. t.i.d.), 126 nM. Moreover, the “Css Free drug Concentration (molarity)” value in [1] (setting [12]) is 131 nM; in [1] (setting [13]), 192 nM; in [1] (60 mg tablet p.o. t.i.d.) it was 340 nM; in data set [1] (120 mg IV every 8 h), 874 nM. The “Css Total Concentration (mass/volume)” value in [1] (20 mg tablet p.o. q.d.) stood at 53 nM. The EC50 on H2 [2] came to 33 nM; at histamine H2 receptor [4] it was 105 nM. Besides, on H2 [2] (Figure 4B), the “activity on H2 in the presence of histamine” value was “antagonist activity”. For the same molecule, the “inverse agonist activity, reduction of basal activity” value at H2 [2] (cAMP, H2) amounted to 75%. Also, on H2 [3], the Ki was ~14 nM and 14 nM. The “displacement of radioligand probe, sigma-2” value on human sigma-2 (TMEM97) is on record as “no detectable displacement”. The “clinical symptoms after initiating treatment” value in the data set with COVID-19 patient is “relief of symptoms overnight”. Moreover, the “activation of bradykinin receptor B1” value on bradykinin receptor B1 is reported as “no activation”. Further, the “activation of bradykinin receptor B2” value at bradykinin receptor B2 is reported as “no activation”. Moreover, the “agonist activity at GPCRs other than H2” value in the data set with 318 known human GPCRs was “no agonist activity”. Further, the IC50 was above 100000 nM with SARS-CoV-2 (setting [14]); 24 nM in [5] (read-out: IC50 Neutrophil H2 cAMP assay, Concentration (molarity)); 39 nM on histamine H2 receptor [7] (read-out: IC50 Histamine H2, Concentration (molarity), ref Lin et al., 1987, 1991); 201 nM in [9] (read-out: IC50 Neutrophil H2 O2- assay, Concentration (molarity)); 158 nM in data set [10] (read-out: IC50 Eosinophil H2 cAMP assay, Concentration (molarity)). Further, the IC90 with SARS-CoV-2 (setting [14]) is above 100000 nM. The “inhibition of SARS-CoV-2 infection” value with SARS-CoV-2 is “no inhibition”. Further, the “effect on histamine-induced cAMP increase” value with human skin mast cells was “blocks histamine-induced cAMP increase”. In addition, in data set [5], the “IC50 Neutrophil H2 cAMP assay, Concentration (mass/volume)” value is 0.008 µg/mL (≈ 0.0237 µM). Besides, the arrestin recruitment efficacy entry on histamine H2 receptor [6] is recorded as “about 15 % that of histamine”. Further, the “IC50 Histamine H2, Concentration (mass/volume)” value on histamine H2 receptor [7] (ref Lin et al., 1987, 1991) was 0.013 µg/mL (≈ 0.0385 µM). For the same molecule, the “effect in more recent retrospective studies” value in [8] is recorded as “no effect”. For the same molecule, the “IC50 Neutrophil H2 O2- assay, Concentration (mass/volume)” value in data set [9] is 0.067 µg/mL (≈ 0.199 µM). Besides, the “IC50 Eosinophil H2 cAMP assay, Concentration (mass/volume)” value in data set [10] is 0.0536 µg/mL (≈ 0.159 µM).
Regarding `CCN(CCO)CCCC(C)Nc1ccnc2cc(Cl)ccc12` (stereo not shown) [Hydroxychloroquine], the “Cytotoxicity: CC10” value with Vero E6 cells was 216 nM. Also, the CC50 at 48 h in data set [11] was above 20000 nM. In the data set on SARS-CoV-2 (setting [15]), the IC50 worked out at 1440 nM and the IC90 came to 3470 nM. Also, the “inhibition of SARS-CoV-2 infection” value in the data set on SARS-CoV-2 was “demonstrated antiviral activity”.
As to `CCC(CC)COC(=O)[C@H](C)N[P@](=O)(OC[C@H]1O[C@@](C#N)(c2ccc3c(N)ncnn23)[C@H](O)[C@@H]1O)Oc1ccccc1` [Remdesivir], the CC50 in “in vitro” was above 20000 nM. The “Cytotoxicity: CC10” value in the data set on Vero E6 cells was above 20000 nM. Moreover, in the data set with SARS-CoV-2 (setting [15]), the IC50 was determined as 966 nM and the IC90 is 1770 nM. In addition, the “inhibition of SARS-CoV-2 infection” value in the data set with SARS-CoV-2 is “demonstrated antiviral activity”.
As for `NCCc1c[nH]cn1` [histamine], the “stimulation of cAMP production” value at H2 [2] (N = 2) is recorded as 20 fold of basal.
